Drawing on patent US10689377B2 (Mirati Therapeutics, Inc., priority 2017, dated 2020), this text covers POC and IC50 for 17 compounds.

Assay [1] addresses KRas G12C (Homo sapiens, UniProt P01116, C118S/C51S/C80L/G12C). In words: KRas G12C Modification Assay (LCMS detection of covalent adduct). It is filed as binding. The procedure: A 10 μL aliquot of each protein solution was then transferred to a 384 well microtiter plate. Initial compound stocks were generated at fifty times their desired final assay concentration in DMSO.
Exemplary compounds of Formula (I) were diluted 25-fold into K-Ras Assay Buffer to a final of two times their final concentration. A 10 μL aliquot of each diluted compound solution was then added to each of the protein solutions in the microtiter plate to initiate reaction. […] At each time point, the reactions were quenched with 20 μL of a 25 mM acetic acid solution. […] Once all reactions were quenched, the plates were heat sealed and the samples were injected into a LC/MS system for data acquisition.
Samples were injected in their liquid phase onto a C-3 reverse phase column to remove assay buffer and prepare the samples for mass spectrometer. The proteins were eluted from the column using an acetonitrile gradient and fed directly into the mass analyzer. Initial raw data analysis took place in Agilent MassHunter software immediately post data acquisition.
Raw data analysis of the intact protein was exclusively a deconvolution of the multiple charge states of each protein in solution using a maximum entropy deconvolution provided in Mass Hunter. To minimize complexity, only the data over limited mass ranges were considered for analysis, with a minimum of one Dalton mass step intervals. The heights of all masses identified during raw data analysis were exported to be further analyzed in Spotfire® data analysis software.
Final data analysis was a multistep process in the Spotfire® data analysis software package. Briefly, each protein mass was calculated as a percent of the total signal of that sample, that percentage was then normalized to the percentage of signal of the protein in the absence of reactive compounds. Those normalized signals were reported as normalized percent of control (POC). […] Key: “A”≤25% POC; “B”>25% POC-≤50% POC; “C”>50% POC and ND=not determined.

The target of assay [2] is KRas G12C (Homo sapiens, UniProt P01116, G12C). In words: Cellular inhibition of KRas G12C measured by Phospho-ERK in NCI-H358 cells. It is filed as cell-based. Conditions: pERK(Thr202/Tyr204) normalized with GAPDH, NCI-H358 cells, 3 hours; read-out: IC50. The method in brief:
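Following 8-12 h attachment, NCI-H358 cells got serially diluted compound (0.5% DMSO) for 3 hours. Cells were then fixed, permeabilized with cold methanol, and stained for pERK(Thr202/Tyr204) and GAPDH. Ratios were converted to percent of DMSO control, with IC50 obtained by four-parameter regression.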

Where [3] appears, read: normalized percent of control, 5 μM concentration for 3 hours.

As usually defined, the IC50 is the concentration at which inhibition is half-maximal. For `C=C(F)C(=O)N1CCN(c2nc(OC[C@@H]3C[C@@H](OC)CN3C)nc3c2CCN(c2cccc4cccc(Cl)c24)C3)C[C@@H]1CC#N` [Example 577, 2-[(2S)-4-[7-(8-Chloro-1-naphthyl)-2-[[(2S,4R)-4-methoxy-1-methyl-pyrrolidin-2-yl]methoxy]-6,8-dihydro-5H-pyrido[3,4-d]pyrimidin-4-yl]-1-(2-fluoroprop-2-enoyl)piperazin-2-yl] acetonitrile], the POC entry at KRas G12C [1] (setting [3]) is recorded as “C (“C”>50% POC)”. Besides, the IC50 at KRas G12C [2] was 0.1 to 1000 nM.
With `C=CC(=O)N1CCN(c2nc(OCCCN3CCOCC3)nc3c2CCN(c2cc(O)cc4cc(C)[nH]c24)C3)CC1` [Example 167, 1-(4-(7-(5-hydroxy-2-methyl-1H-indol-7-yl)-2-(3-morpholinopropoxy)-5,6,7,8-tetrahydropyrido[3,4-d]pyrimidin-4-yl)piperazin-1-yl)prop-2-en-1-one], the POC result at KRas G12C [1] (setting [3]) was “B (“B”>25% POC-≤50% POC)”. Further, at KRas G12C [2], the IC50 is greater than 1000 nM.
The corresponding values for `C=CC(=O)N1CCN(c2nc(OCCN3CCC[C@@H](F)C3)nc3c2CCN(c2cc(O)cc4ccccc24)C3)CC1` [Example 207, (R)-1-(4-(2-(2-(3-fluoropiperidin-1-yl)ethoxy)-7-(3-hydroxynaphthalen-1-yl)-5,6,7,8-tetrahydropyrido[3,4-d]pyrimidin-4-yl)piperazin-1-yl)prop-2-en-1-one] are “C (“C”>50% POC)” and greater than 1000 nM.
The matching figures for `C=CC(=O)N1CCN(c2nc(OCCCN3CC4CC4C3)nc3c2CCN(c2cc(O)cc4ccccc24)C3)CC1` (stereo not shown) [Example 206, 1-(4-(2-(3-(3-azabicyclo[3.1.0]hexan-3-yl)propoxy)-7-(3-hydroxynaphthalen-1-yl)-5,6,7,8-tetrahydropyrido[3,4-d]pyrimidin-4-yl)piperazin-1-yl)prop-2-en-1-one]: “C (“C”>50% POC)” and 0.1 to 1000 nM.
Turning to `COC/C=C/C(=O)N1CCN(c2nc(OC[C@H]3CCCN3C)nc3c2CCN(c2cccc4cccc(C)c24)C3)C[C@@H]1CC#N` [Example 554, 2-[(2S)-1-[(E)-4-Methoxybut-2-enoyl]-4-[7-(8-methyl-1-naphthyl)-2-[[(2R)-1-methylpyrrolidin-2-yl]methoxy]-6,8-dihydro-5H-pyrido[3,4-d]pyrimidin-4-yl]piperazin-2-yl] acetonitrile], at KRas G12C [1] (setting [3]), the POC result is reported as “C (“C”>50% POC)”. The IC50 at KRas G12C [2] was in the range of 0.1 to 1000 nM.
As to `C=CC(=O)N1CCN(c2nc(OC[C@@H]3CCCN3C)nc3c2CCN(c2c(C(F)(F)F)ccc4[nH]ncc24)C3)CC1CC#N` (stereo partly drawn) [Example 149, 2-[4-[2-[[(2S)-1-methylpyrrolidin-2-yl]methoxy]-7-[5-(trifluoromethyl)-1H-indazol-4-yl]-6,8-dihydro-5H-pyrido[3,4-d]pyrimidin-4-yl]-1-prop-2-enoyl-piperazin-2-yl]acetonitrile], the POC result on KRas G12C [1] (setting [3]) was “B (“B”>25% POC-≤50% POC)”. Further, the IC50 at KRas G12C [2] fell in the range of 0.1 to 1000 nM.
The matching figures for `C=C(F)C(=O)N1CCN(c2nc(SC[C@@H]3CCCN3C)nc3c2CCN(c2cccc4cccc(C)c24)C3)C[C@@H]1CC#N` [Example 599, 2-((S)-1-(2-Fluoroacryloyl)-4-(7-(8-methylnaphthalen-1-yl)-2-((((S)-1-methylpyrrolidin-2-yl)methyl)thio)-5,6,7,8-tetrahydropyrido [3,4-d]pyrimidin-4-yl)piperazin-2-yl)acetonitrile]: “C (“C”>50% POC)” and greater than 1000 nM.
The corresponding values for `Cc1cccc2cccc(N3CCc4c(nc(OCCCN5C[C@@H]6C[C@H]5CO6)nc4N4CCN(C(=O)/C=C/CF)[C@@H](CC#N)C4)C3)c12` [Example 565, 2-[(2S)-1-[(E)-4-Fluorobut-2-enoyl]-4-[7-(8-methyl-1-naphthyl)-2-[3-[(1S,4S)-2-oxa-5-azabicyclo[2.2.1]heptan-5-yl]propoxy]-6,8-dihydro-5H-pyrido[3,4-d]pyrimidin-4-yl]piperazin-2-yl]acetonitrile] are “C (“C”>50% POC)” and 0.1 to 1000 nM.
The matching figures for `C=CC(=O)N1CCN(c2nc(OCCCN3CCOCC3)nc3c2CCN(c2cc(O)cc4cccnc24)C3)CC1` [Example 205, 1-(4-(7-(6-hydroxyquinolin-8-yl)-2-(3-morpholinopropoxy)-5,6,7,8-tetrahydropyrido[3,4-d]pyrimidin-4-yl)piperazin-1-yl)prop-2-en-1-one]: “C (“C”>50% POC)” and greater than 1000 nM.
In the case of `C=CC(=O)N1CCN(c2nc(OCCCO)nc3c2CCN(c2cccc4ccccc24)C3)CC1CC#N` (stereo not shown) [Example 231, 2-(1-acryloyl-4-(2-(3-hydroxypropoxy)-7-(naphthalen-1-yl)-5,6,7,8-tetrahydropyrido[3,4-d]pyrimidin-4-yl)piperazin-2-yl)acetonitrile], the POC result on KRas G12C [1] (setting [3]) was “C (“C”>50% POC)”. Moreover, at KRas G12C [2], the IC50 fell in the range of 0.1 to 1000 nM.
Regarding `C=CC(=O)N1CCN(c2nc(OC[C@H]3CCCN3C)nc3c2CCN(c2cccc4ccccc24)C3)C[C@@H]1CC#N` [Example 267, 2-((S)-1-acryloyl-4-(2-(((R)-1-methylpyrrolidin-2-yl)methoxy)-7-(naphthalen-1-yl)-5,6,7,8-tetrahydropyrido[3,4-d]pyrimidin-4-yl)piperazin-2-yl)acetonitrile], the POC entry on KRas G12C [1] (5 µM) is listed as “C (key: “A”≤25% POC; “B”>25% POC-≤50% POC; “C”>50% POC)”. The IC50 on KRas G12C [2] lay in the range of 0.1 to 1000 nM.
Turning to `C=C(F)C(=O)N1CCN(c2nc(OC[C@@H]3C[C@@H](OC)CN3C)nc3c2CCN(c2cccc4cccc(C)c24)C3)C[C@@H]1CC#N` [Example 561, 2-[(2S)-1-(2-Fluoroprop-2-enoyl)-4-[2-[[(2S,4R)-4-methoxy-1-methyl-pyrrolidin-2-yl]methoxy]-7-(8-methyl-1-naphthyl)-6,8-dihydro-5H-pyrido[3,4-d]pyrimidin-4-yl]piperazin-2-yl]acetonitrile], on KRas G12C [1] (setting [3]), the POC entry is reported as “C (“C”>50% POC)”. In addition, the concentration for half-maximal inhibition (IC50) at KRas G12C [2] lay within 0.1 to 1000 nM.
The corresponding values for `C=C(F)C(=O)N1CCN(c2nc(OC[C@@H]3CCCN3)nc3c2CCN(c2cccc4cccc(C)c24)C3)C[C@@H]1CC#N` [Example 568, 2-[(2S)-1-(2-Fluoroprop-2-enoyl)-4-[7-(8-methyl-1-naphthyl)-2-[[(2S)-pyrrolidin-2-yl]methoxy]-6,8-dihydro-5H-pyrido[3,4-d]pyrimidin-4-yl]piperazin-2-yl]acetonitrile] are “C (“C”>50% POC)” and 0.1 to 1000 nM.
For the compound `C=C(F)C(=O)N1CCN(c2nc(OC[C@H]3C[C@@H](OC)CN3C)nc3c2CCN(c2cccc4cccc(Cl)c24)C3)C[C@@H]1CC#N` [Example 576, 2-[(2S)-4-[7-(8-Chloro-1-naphthyl)-2-[[(2R,4R)-4-methoxy-1-methyl-pyrrolidin-2-yl]methoxy]-6,8-dihydro-5H-pyrido[3,4-d]pyrimidin-4-yl]-1-(2-fluoroprop-2-enoyl)piperazin-2-yl]acetonitrile], at KRas G12C [1] (setting [3]), the POC result was “C (“C”>50% POC)”. Besides, at KRas G12C [2], the IC50 is 0.1 to 1000 nM.
The corresponding values for `C=C(F)C(=O)N1CCN(c2nc(OC[C@@H]3C[C@@H](F)CN3C)nc3c2CCN(c2cccc4cccc(Cl)c24)C3)C[C@@H]1CC#N` [Example 574, 2-[(2S)-4-[7-(8-Chloro-1-naphthyl)-2-[[(2S,4R)-4-fluoro-1-methyl-pyrrolidin-2-yl]methoxy]-6,8-dihydro-5H-pyrido[3,4-d]pyrimidin-4-yl]-1-(2-fluoroprop-2-enoyl)piperazin-2-yl] acetonitrile] are “C (“C”>50% POC)” and 0.1 to 1000 nM.
`C=C(F)C(=O)N1CCN(c2nc(OC[C@@H]3CCCN3C)nc3c2CCN(c2nccc4cccc(Br)c24)C3)C[C@@H]1CC#N` [Example 594, 2-((S)-4-(7-(8-Bromoisoquinolin-1-yl)-2-(((S)-1-methylpyrrolidin-2-yl)methoxy)-5,6,7,8-tetrahydropyrido[3,4-d]pyrimidin-4-yl)-1-(2-fluoroacryloyl)piperazin-2-yl)acetonitrile]: the POC entry at KRas G12C [1] (setting [3]) was “A (“A”≤25% POC)”. In addition, the IC50 at KRas G12C [2] was greater than 1000 nM.
The matching figures for `CN1CCC[C@H]1COc1nc2c(c(N3CCN(C(=O)/C=C/CN4CCC(F)(F)C4)[C@@H](CC#N)C3)n1)CCN(c1cccc(Cl)c1C(F)(F)F)C2` [Example 471, 2-[(2S)-4-[7-[3-chloro-2-(trifluoromethyl)phenyl]-2-[[(2S)-1-methylpyrrolidin-2-yl]methoxy]-6,8-dihydro-5H-pyrido[3,4-d]pyrimidin-4-yl]-1-[(E)-4-(3,3-difluoropyrrolidin-1-yl)but-2-enoyl]piperazin-2-yl]acetonitrile]: “C (“C”>50% POC)” and greater than 1000 nM.
